Data as given in patent publication US20040037837A1 (priority 2000, published 2004).

Legend:
[1] = tested on: Uncultured PBMCs from HLA-A2 donors; assay type: cell-based, human
[2] = tested on: autologous monocyte-derived macrophages infected with M. bovis BCG, M. tuberculosis or rVV expressing Ag85A; assay type: cell-based, human; conditions: label = peptide used to generate the STCL (or pulsed control peptide)
[3] = tested on: HLA-A2 transgenic C57B1/6 mice; assay type: in vivo; conditions: subcutaneous peptides in IFA
[4] = tested on: THP-1 cells pulsed with peptide; experiment: 51Cr release cytotoxicity assay of peptide specific CD8+ T cells against peptide pulsed THP-1 cells; assay type: cell-based, human; conditions: 50:1 E:T ratio; label = peptide pulsed on targets; STCL after 2 weeks of stimulation

Sequence	mean number of IFN-γ sfc's enumerated from 5×10^5 PBMCs [1]	recognition and lysis of M. bovis BCG, M. tuberculosis and rVV85A infected macrophages by peptide specific CTLs [2]	recognition of peptide with feeder cells from wild type C57B1/6 mice ([3]; 7 days post first boost, lymph node)	IFNγ response to peptide in the lymph node ([3]; 7 days post first boost, autologous feeders)	specific lysis of peptide pulsed THP-1 cells by P242-250 reactive CD8^+ T cells [4]	peptide specific IFNγ producing T cells in the spleens ([3]; 7 days post second boost)	specific lysis of peptide pulsed THP-1 cells by P48-56 stimulated CD8^+ T cells [4]
KLIANNTRV (listed as Mycobacterium tuberculosis) [P242-250]	22	able to recognise and lyse	not recognised	a response to P242-250 was seen	79%	–	–
GLPVEYLQV (listed as Mycobacterium tuberculosis) [P48-56]	27	able to recognise and lyse	–	–	no significant lysis	resulted in a P48-56 response	76%
